According to US20140309265A1, “MACROCYCLIC COMPOUNDS FOR INHIBITION OF INHIBITORS OF APOPTOSIS” (Ensemble Therapeutics, priority 2011, published 2014):

How the values were obtained:
[1] = target: T1, His-BIR2-3 (125-356, C202A/C213G, XIAP) (Homo sapiens, UniProt P98170, C202A/C213G); assay: XIAP-BIR2-3 Dimeric SMAC Peptide Homogeneous Time Resolved Fluorescence (HTRF) Assay; format: binding; conditions: XIAP BIR2-3, HTRF, Table 4
T1 construct: additions of His-BIR2-3 (125-356, C202A/C213G, XIAP), fluorescein labeled dimeric SMAC peptide
T1 sequence (P98170 125-356 C202A/C213G): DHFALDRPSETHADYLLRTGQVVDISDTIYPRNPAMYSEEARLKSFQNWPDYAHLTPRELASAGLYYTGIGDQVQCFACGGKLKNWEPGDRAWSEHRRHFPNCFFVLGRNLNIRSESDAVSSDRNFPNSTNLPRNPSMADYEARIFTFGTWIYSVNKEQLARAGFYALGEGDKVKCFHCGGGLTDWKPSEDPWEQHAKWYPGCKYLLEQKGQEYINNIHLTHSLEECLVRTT

His-BIR3 (241-356, XIAP) = target: T2, His-BIR3 (241-356, XIAP) (Homo sapiens, UniProt P98170); assay: XIAP-BIR3/SMAC Homogeneous Time Resolved Fluorescence (HTRF) Assay; format: binding; conditions: Table 4
T2 construct: additions of His-BIR3 (241-356, XIAP), fluorescein labeled SMAC peptide
T2 sequence (P98170 241-356): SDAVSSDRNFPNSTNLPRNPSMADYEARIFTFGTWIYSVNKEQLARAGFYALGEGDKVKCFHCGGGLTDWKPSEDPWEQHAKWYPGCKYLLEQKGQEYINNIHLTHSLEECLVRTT

SMILES	IC50 [1] [nM]	IC50 (His-BIR3 (241-356, XIAP)) [nM]
CN[C@@H](C)C(=O)N[C@H](C(=O)N1C[C@@H]2C[C@H]1C(=O)N[C@@H](Cc1ccc3ccccc3c1)C(=O)N[C@H](C(=O)O)Cc1ccc(cc1)OCc1cn(nn1)[C@H]1C[C@@H](C(=O)N[C@@H](Cc3ccc4ccccc4c3)C(=O)N[C@H](C(=O)N(C)C)Cc3ccc(cc3)OCc3cn2nn3)N(C(=O)[C@@H](NC(=O)[C@H](C)NC)C(C)(C)C)C1)C(C)(C)C [Compound 1024]	1 to 10	< 10
CN[C@@H](C)C(=O)N[C@H](C(=O)N1C[C@@H]2C[C@H]1C(=O)N[C@@H](Cc1ccc3ccccc3c1)C(=O)N[C@H](C(=O)O)Cc1ccc(cc1)OCc1cn(nn1)[C@H]1C[C@@H](C(=O)N[C@@H](Cc3ccc4ccccc4c3)C(=O)N[C@H](C(=O)O)Cc3ccc(cc3)OCc3cn2nn3)N(C(=O)[C@@H](NC(=O)[C@H](C)NC)C23CC4CC(CC(C4)C2)C3)C1)C12CC3CC(CC(C3)C1)C2 [Compound 1008]	≤ 1	10 to 100
CN[C@@H](C)C(=O)N[C@H](C(=O)N1C[C@@H]2C[C@H]1C(=O)N[C@@H](Cc1ccc3ccccc3c1)C(=O)N[C@H](C(=O)O)Cc1ccc(cc1)OCc1cn(nn1)[C@H]1C[C@@H](C(=O)N[C@@H](Cc3ccc4ccccc4c3)C(=O)N[C@H](C(=O)N3CCC(C(=O)O)C3)Cc3ccc(cc3)OCc3cn2nn3)N(C(=O)[C@@H](NC(=O)[C@H](C)NC)C(C)(C)C)C1)C(C)(C)C (stereo partly shown) [Compound 1021]	1 to 10	< 10
CNC(C)C(=O)NC(C(=O)N1CC2CC1C(=O)NC(Cc1ccc3ccccc3c1)C(=O)NC(C(=O)O)Cc1ccc(cc1)OCc1cn(nn1)C1CC(C(=O)NC(Cc3ccc4ccccc4c3)C(=O)NC(C(=O)O)c3ccc(cc3)OCc3cn2nn3)N(C(=O)C(NC(=O)C(C)NC)C(C)(C)C)C1)C(C)(C)C (stereo not shown) [Compound 1013]	≤ 1	< 10
CN[C@@H](C)C(=O)N[C@H](C(=O)N1C[C@@H]2C[C@H]1C(=O)N[C@@H](Cc1ccc3ccccc3c1)C(=O)N[C@H](C(=O)O)Cc1ccc(cc1)OCc1cn(nn1)[C@H]1C[C@@H](C(=O)N[C@@H](Cc3ccc4ccccc4c3)C(=O)N[C@H](C(=O)O)Cc3ccc(cc3)OCCc3cn2nn3)N(C(=O)[C@@H](NC(=O)[C@H](C)NC)C(C)(C)C)C1)C(C)(C)C [Compound 1017]	≤ 1	< 10
CN[C@@H](C)C(=O)N[C@H](C(=O)N1C[C@@H]2C[C@H]1C(=O)N[C@@H](Cc1ccc3ccccc3c1)C(=O)N[C@H](C(=O)O)Cc1ccc(cc1)NC(=O)CCc1cn(nn1)[C@H]1C[C@@H](C(=O)N[C@@H](Cc3ccc4ccccc4c3)C(=O)N[C@H](C(=O)O)Cc3ccc(cc3)NC(=O)CCc3cn2nn3)N(C(=O)[C@@H](NC(=O)[C@H](C)NC)C(C)(C)C)C1)C(C)(C)C [Compound 1012]	1 to 10	< 10
CN[C@@H](C)C(=O)N[C@H](C(=O)N1C[C@@H]2C[C@H]1C(=O)N[C@@H](Cc1ccc3ccccc3c1)C(=O)N[C@H](C(=O)O)Cc1ccc(cc1)OCc1cn(nn1)[C@H]1C[C@@H](C(=O)N[C@@H](Cc3ccc4ccccc4c3)C(=O)N[C@H](C(=O)NS(=O)(=O)c3ccc4ccccc4c3)Cc3ccc(cc3)OCc3cn2nn3)N(C(=O)[C@@H](NC(=O)[C@H](C)NC)C(C)(C)C)C1)C(C)(C)C [Compound 1039]	1 to 10	10 to 100
CN[C@@H](C)C(=O)N[C@H](C(=O)N1C[C@@H]2C[C@H]1C(=O)N[C@@H](Cc1ccc3ccccc3c1)C(=O)N[C@H](C(=O)O)Cc1ccc(cc1)OCc1cn(nn1)[C@H]1C[C@@H](C(=O)N[C@@H](Cc3ccc4ccccc4c3)C(=O)N[C@H](c3n[nH]oc3=O)Cc3ccc(cc3)OCc3cn2nn3)N(C(=O)[C@@H](NC(=O)[C@H](C)NC)C(C)(C)C)C1)C(C)(C)C [Compound 1043]	1 to 10	10 to 100
CN[C@@H](C)C(=O)N[C@H](C(=O)N1C[C@@H]2C[C@H]1C(=O)N[C@@H](Cc1ccc3ccccc3c1)C(=O)N[C@H](C(=O)O)Cc1ccc(cc1)OCc1cn(nn1)[C@H]1C[C@@H](C(=O)N[C@@H](Cc3ccc4ccccc4c3)C(=O)N[C@H](C(=O)N[C@@H](CC(=O)O)C(=O)N[C@H](CCSC)C(=O)O)Cc3ccc(cc3)OCc3cn2nn3)N(C(=O)[C@@H](NC(=O)[C@H](C)NC)C(C)(C)C)C1)C(C)(C)C [Compound 1038]	> 10	10 to 100
CN[C@@H](C)C(=O)N[C@H](C(=O)N1C[C@@H]2C[C@H]1C(=O)N[C@@H](Cc1ccc3ccccc3c1)C(=O)N[C@H](C(=O)O)Cc1ccc(cc1)OCc1cn(nn1)[C@H]1C[C@@H](C(=O)N[C@@H](Cc3ccc4ccccc4c3)C(=O)N[C@H](C(=O)NS(=O)(=O)c3ccncc3)Cc3ccc(cc3)OCc3cn2nn3)N(C(=O)[C@@H](NC(=O)[C@H](C)NC)C(C)(C)C)C1)C(C)(C)C [Compound 1046]	≤ 1	< 10
CN[C@@H](C)C(=O)N[C@H](C(=O)N1C[C@@H]2C[C@H]1C(=O)N[C@@H](Cc1ccc3ccccc3c1)C(=O)N[C@H](C(=O)O)Cc1ccc(cc1)OCc1cn(nn1)[C@H]1C[C@@H](C(=O)N[C@@H](Cc3ccc4ccccc4c3)C(=O)N[C@H](C(=O)NS(=O)(=O)c3ccccn3)Cc3ccc(cc3)OCc3cn2nn3)N(C(=O)[C@@H](NC(=O)[C@H](C)NC)C(C)(C)C)C1)C(C)(C)C [Compound 1035]	≤ 1	< 10
CN[C@@H](C)C(=O)N[C@H](C(=O)N1C[C@@H]2C[C@H]1C(=O)N[C@@H](Cc1ccc3ccccc3c1)C(=O)N[C@H](C(=O)O)Cc1ccc(cc1)OCc1cn(nn1)[C@H]1C[C@@H](C(=O)N[C@@H](Cc3ccc4ccccc4c3)C(=O)N[C@H](C(=O)NS(=O)(=O)c3ccc(OC(F)(F)F)cc3)Cc3ccc(cc3)OCc3cn2nn3)N(C(=O)[C@@H](NC(=O)[C@H](C)NC)C(C)(C)C)C1)C(C)(C)C [Compound 1036]	1 to 10	10 to 100
CN[C@@H](C)C(=O)N[C@H](C(=O)N1C[C@@H]2C[C@H]1C(=O)N[C@@H](Cc1ccc3ccccc3c1)C(=O)N[C@H](C(=O)O)Cc1ccc(cc1)OCc1cn(nn1)[C@H]1C[C@@H](C(=O)N[C@@H](Cc3ccc4ccccc4c3)C(=O)N[C@H](C(=O)NCc3cccc(-c4nnn[nH]4)c3)Cc3ccc(cc3)OCc3cn2nn3)N(C(=O)[C@@H](NC(=O)[C@H](C)NC)C(C)(C)C)C1)C(C)(C)C [Compound 1029]	1 to 10	10 to 100
CN[C@@H](C)C(=O)N[C@H](C(=O)N1C[C@@H]2C[C@H]1C(=O)N[C@@H](Cc1ccc3ccccc3c1)C(=O)N[C@H](C(=O)O)Cc1ccc(cc1)OCc1cn(nn1)[C@H]1C[C@@H](C(=O)N[C@@H](Cc3ccc4ccccc4c3)C(=O)N[C@H](C(=O)NCCC(=O)O)Cc3ccc(cc3)OCc3cn2nn3)N(C(=O)[C@@H](NC(=O)[C@H](C)NC)C(C)(C)C)C1)C(C)(C)C [Compound 1019]	1 to 10	< 10
CN[C@@H](C)C(=O)N[C@H](C(=O)N1C[C@@H]2C[C@H]1C(=O)N[C@@H](Cc1ccc3ccccc3c1)C(=O)N[C@H](C(=O)O)Cc1ccc(cc1)OCc1cn(nn1)[C@H]1C[C@@H](C(=O)N[C@@H](Cc3ccc4ccccc4c3)C(=O)N[C@H](C(=O)NCCCC(=O)O)Cc3ccc(cc3)OCc3cn2nn3)N(C(=O)[C@@H](NC(=O)[C@H](C)NC)C(C)(C)C)C1)C(C)(C)C [Compound 1032]	≤ 1	< 10
CN[C@@H](C)C(=O)N[C@H](C(=O)N1C[C@@H]2C[C@H]1C(=O)N[C@@H](Cc1ccc3ccccc3c1)C(=O)N[C@H](C(=O)O)Cc1ccc(cc1)-c1cn(nn1)[C@H]1C[C@@H](C(=O)N[C@@H](Cc3ccc4ccccc4c3)C(=O)N[C@H](C(=O)O)Cc3ccc(cc3)OCc3cn2nn3)N(C(=O)[C@@H](NC(=O)[C@H](C)NC)C(C)(C)C)C1)C(C)(C)C [Compound 1015]	1 to 10	10 to 100
CN[C@@H](C)C(=O)N[C@H](C(=O)N1C[C@@H]2C[C@H]1C(=O)N[C@@H](Cc1ccc3ccccc3c1)C(=O)N[C@H](C(=O)O)Cc1ccc(cc1)OCc1cn(nn1)[C@H]1C[C@@H](C(=O)N[C@@H](Cc3ccc4ccccc4c3)C(=O)N[C@H](C(=O)NS(=O)(=O)CCCNC(C)=O)Cc3ccc(cc3)OCc3cn2nn3)N(C(=O)[C@@H](NC(=O)[C@H](C)NC)C(C)(C)C)C1)C(C)(C)C [Compound 1052]	≤ 1	< 10
CN[C@@H](C)C(=O)N[C@H](C(=O)N1C[C@@H]2C[C@H]1C(=O)N[C@@H](Cc1ccc3ccccc3c1)C(=O)N[C@H](C(=O)O)Cc1ccc(cc1)OCc1cn(nn1)[C@H]1C[C@@H](C(=O)N[C@@H](Cc3ccc4ccccc4c3)C(=O)N[C@H](C(=O)NCC[C@@H](O)C[C@@H](O)CC(=O)O)Cc3ccc(cc3)OCc3cn2nn3)N(C(=O)[C@@H](NC(=O)[C@H](C)NC)C(C)(C)C)C1)C(C)(C)C [Compound 1044]	1 to 10	< 10
CN[C@@H](C)C(=O)N[C@H](C(=O)N1CCN2CCn3cc(nn3)C[C@@H](C(=O)OC)NC(=O)[C@H](Cc3ccc4ccccc4c3)NC(=O)[C@@H]3CN(CCN3C(=O)[C@@H](NC(=O)[C@H](C)NC)C(C)C)CCn3cc(nn3)C[C@@H](C(=O)O)NC(=O)[C@H](Cc3ccc4ccccc4c3)NC(=O)[C@@H]1C2)C(C)C [Compound 1049]	1 to 10	> 100
CN[C@@H](C)C(=O)N[C@H](C(=O)N1C[C@@H]2C[C@H]1C(=O)N[C@@H](Cc1ccc3ccccc3c1)C(=O)N[C@H](C(=O)O)Cc1ccc(cc1)OCc1cn(nn1)[C@H]1C[C@@H](C(=O)N[C@@H](Cc3ccc4ccccc4c3)C(=O)N[C@H](C(=O)NCc3cc(F)c(OC)c(F)c3)Cc3ccc(cc3)OCc3cn2nn3)N(C(=O)[C@@H](NC(=O)[C@H](C)NC)C(C)(C)C)C1)C(C)(C)C [Compound 1040]	> 10	> 100
